Values after ≈ are worked out from the molar mass of the structure shown. One block for each compound: values may come before it.
What was measured:
Assay in all cases: ≥ marks a high value that may be exact or a test limit, other limits are often not marked, values filed in µg/mL are converted to µM
[1] = tested on: Enterococcus faecium
[2] = tested on: Staphylococcus aureus K35
[3] = tested on: Staphylococcus aureus K52
[4] = tested on: Enterococcus faecalis ATCC 29212
[5] = tested on: Staphylococcus aureus ATCC 25923
[6] = tested on: Staphylococcus aureus 936
[7] = tested on: Escherichia coli ATCC 25922
[8] = tested on: Escherichia coli 780
[9] = tested on: Acinetobacter baumannii ATCC 19606
[10] = tested on: Klebsiella pneumoniae ATCC 700603
[11] = tested on: Escherichia coli 850
[12] = tested on: Pseudomonas aeruginosa 2760
[13] = tested on: Staphylococcus aureus 725
[14] = tested on: Acinetobacter baumannii
[15] = tested on: Pseudomonas aeruginosa ATCC 27853
[16] = tested on: Bacillus subtilis ATCC 23857
[17] = tested on: Pseudomonas aeruginosa PAO1
[18] = tested on: Candida albicans ATCC 90028
[19] = tested on: Bacillus subtilis ATCC 13933
[20] = tested on: Acinetobacter baumannii ATCC 17978
[21] = tested on: Escherichia coli ATCC 700928
[22] = tested on: Staphylococcus aureus USA 300
[23] = tested on: Staphylococcus aureus ATCC 9144
[24] = tested on: Escherichia coli NCTC 12923
[25] = tested on: Klebsiella pneumoniae NCTC 13368
[26] = tested on: Escherichia coli K12 MG1655
[27] = tested on: Staphylococcus aureus 68 HER 1049
[28] = tested on: Escherichia coli MG1655
[29] = tested on: Bacillus subtilis PS832
[30] = tested on: Staphylococcus aureus JCM 2151
[31] = tested on: Micrococcus luteus NBRC 12708
[32] = tested on: Pseudomonas aeruginosa NBRC 12582
[33] = tested on: Escherichia coli NBRC 14237
[34] = tested on: Staphylococcus aureus NBRC 12732
[35] = tested on: Escherichia coli DH5alpha

MIC [1]: 5.6 µM (≈ 7.82 µg/mL)
MIC [2]: 2.8 µM (≈ 3.91 µg/mL)
MIC [3]: 2.8 µM (≈ 3.91 µg/mL)
MIC [4]: 10.5 µM (≈ 14.7 µg/mL)
MIC [5]: 5.2 µM (≈ 7.26 µg/mL)
Structure (SMILES): CC(C)C[C@H](NC(=O)[C@H](CC(C)C)NC(=O)CNC(=O)[C@H](CO)NC(=O)[C@H](CC(C)C)NC(=O)[C@@H](NC(=O)[C@H](CCCN=C(N)N)NC(=O)CNC(=O)[C@H](CC(C)C)NC(=O)[C@H](CC(C)C)NC(=O)[C@@H]1CCCN1C(=O)[C@H](CC(C)C)NC(=O)[C@@H](N)Cc1ccccc1)C(C)C)C(N)=O [FLPLLGRVLSGLL]

MIC [6]: ≥ 54.9 µM
MIC [7]: > 54.9 µM
MIC [8]: ≥ 54.9 µM
MIC [4]: > 54.9 µM
MIC [9]: 54.9 µM (≈ 128 µg/mL)
MIC [10]: > 54.9 µM
MIC [11]: ≥ 54.9 µM
MIC [12]: ≥ 54.9 µM
MIC [5]: > 54.9 µM
MIC [13]: ≥ 54.9 µM
MIC [14]: ≥ 54.9 µM
MIC [15]: 54.9 µM (≈ 128 µg/mL)
MIC [16]: ≥ 54.9 µM
Structure (SMILES): CC[C@H](C)[C@H](NC(=O)[C@H](CCCCN)NC(=O)[C@H](CCCCN)NC(=O)[C@@H]1CCCN1C(=O)[C@H](CC(C)C)NC(=O)[C@H](CCCCN)NC(=O)[C@H](C)NC(=O)[C@H](CC(C)C)NC(=O)[C@@H]1CCCN1C(=O)[C@H](CCCCN)NC(=O)[C@H](CC(C)C)NC(=O)[C@H](CC(N)=O)NC(=O)[C@@H](NC(=O)[C@H](CCCCN)NC(=O)[C@@H]1CCCN1C(=O)[C@H](CC(C)C)NC(=O)[C@H](CC(C)C)NC(=O)[C@H](Cc1ccc(O)cc1)NC(=O)CNC(=O)[C@H](C)N)[C@@H](C)CC)C(=O)N[C@@H](CC(C)C)C(N)=O [AGYLLPKINLKPLAKLPKKIL]

MIC [17]: > 52 µM
MIC [18]: 1.9 µM (≈ 4.67 µg/mL)
MIC [19]: ≥ 48.8 µM
MIC [20]: ≥ 52 µM
MIC [21]: ≥ 48.8 µM
MIC [22]: ≥ 52 µM
MIC [23]: ≥ 52 µM
MIC [24]: ≥ 52 µM
MIC [25]: ≥ 52 µM
Structure (SMILES): CC[C@H](C)[C@H](NC(=O)CNC(=O)[C@@H](N)CCCCN)C(=O)N[C@@H](CCCN=C(N)N)C(=O)NCC(=O)N[C@@H](Cc1ccc(O)cc1)C(=O)N[C@@H](CCCCN)C(=O)NCC(=O)NCC(=O)N[C@@H](Cc1ccc(O)cc1)C(=O)N[C@@H](CS)C(=O)N[C@@H](CCCCN)C(=O)NCC(=O)N[C@@H](C)C(=O)N[C@@H](Cc1ccccc1)C(=O)N[C@@H](CCCCN)C(=O)N[C@@H](CCC(N)=O)C(=O)N[C@H](C(=O)N[C@@H](CS)C(=O)N[C@@H](CCCCN)C(=O)N[C@@H](CS)C(=O)N[C@@H](Cc1ccc(O)cc1)C(=O)O)[C@@H](C)O [KGIRGYKGGYCKGAFKQTCKCY]

MIC [26]: 0.954 µM (≈ 2 µg/mL)
MIC [27]: 3.82 µM (≈ 8 µg/mL)
Structure (SMILES): CC[C@H](C)[C@H](NC(=O)[C@H](CCCN=C(N)N)NC(=O)[C@H](CCCN=C(N)N)NC(=O)[C@H](CC(C)C)NC(=O)[C@H](CCCCN)NC(=O)[C@H](CCCCN)NC(=O)[C@H](Cc1c[nH]c2ccccc12)NC(=O)[C@H](CCCCN)NC(=O)[C@H](CCCCN)NC(=O)[C@H](Cc1c[nH]c2ccccc12)NC(=O)[C@@H](N)Cc1ccc(O)cc1)C(=O)N[C@@H](Cc1ccccc1)C(=O)N[C@@H](CCSC)C(=O)N[C@@H](CC(C)C)C(=O)N[C@H](C(=O)O)C(C)C [YWKKWKKLRRIFMLV]

MIC [28]: 8 µM (≈ 12.3 µg/mL)
MIC [29]: 8 µM (≈ 12.3 µg/mL)
Structure (SMILES): CC[C@H](C)[C@H](NC(=O)[C@H](CCCN=C(N)N)NC(=O)[C@H](CCCCN)NC(=O)[C@H](CC(C)C)NC(=O)[C@H](CC(C)C)NC(=O)CNC(=O)[C@H](Cc1cnc[nH]1)NC(=O)[C@H](CCCCN)NC(=O)[C@@H](N)CC(C)C)C(=O)N[C@@H](CCCCN)C(=O)N[C@H](C(=O)N[C@@H](CC(C)C)C(=O)N[C@@H](CC(C)C)C(N)=O)[C@@H](C)O [LKHGLLKRIKTLL]

MIC [30]: 6.48 µM (≈ 9.69 µg/mL)
MIC [31]: 25 µM (≈ 37.4 µg/mL)
MIC [32]: ≥ 50 µM
MIC [33]: 12.5 µM (≈ 18.7 µg/mL)
MIC [34]: 12.5 µM (≈ 18.7 µg/mL)
MIC [35]: ≥ 33.4 µM
Structure (SMILES): CC[C@H](C)[C@H](NC(=O)[C@@H](N)Cc1ccccc1)C(=O)NCC(=O)N[C@@H](C)C(=O)N[C@@H](CC(C)C)C(=O)N[C@@H](CC(C)C)C(=O)N[C@@H](CCCN=C(N)N)C(=O)N1CCC[C@H]1C(=O)N[C@@H](C)C(=O)N[C@@H](CC(C)C)C(=O)N[C@@H](CCCCN)C(=O)N[C@@H](CC(C)C)C(=O)N[C@@H](CC(C)C)C(=O)N[C@@H](C)C(N)=O [FIGALLRPALKLLA]
